In publication PMC6694196, “Intrinsic tryptophan fluorescence spectroscopy reliably determines galectin-ligand interactions” (Scientific Reports, 2019):
Values joined by “and” are separate entries in the source; they are usually repeats but may differ in a detail not shown here. Equal entries are not always repeated. “Also recorded” adds a separate entry of the source.

Assays:
galectin-4 [1] = target: T1, galectin-4 (Homo sapiens, UniProt P56470); test: TFS of galectin-4-ligand interaction; format: binding; conditions: for blue shift of maximum fluorescence peak: galectin-4; for maximum ligand binding-induced fluorescence intensity change: galectin-4, control buffer titration deducted; for Kd: full-length galectin-4 5 µM, PBS, 25 °C
T1 construct: 6xHis-SUMO (N, cleaved yes); made in house; host or cells: E. coli BL21(DE3)
T1 sequence (P56470 1-323): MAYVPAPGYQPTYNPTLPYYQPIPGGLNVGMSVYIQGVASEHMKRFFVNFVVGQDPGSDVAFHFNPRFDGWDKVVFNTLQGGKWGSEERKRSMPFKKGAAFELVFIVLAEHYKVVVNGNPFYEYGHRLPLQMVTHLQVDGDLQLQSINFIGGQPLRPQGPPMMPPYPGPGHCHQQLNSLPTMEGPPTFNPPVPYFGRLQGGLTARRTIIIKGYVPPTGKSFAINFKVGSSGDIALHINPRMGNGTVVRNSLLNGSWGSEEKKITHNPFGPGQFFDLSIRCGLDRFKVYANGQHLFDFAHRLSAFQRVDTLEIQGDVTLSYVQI
Method: (§1) All tryptophan fluorescence spectroscopy experiments were performed using CARY Eclipse Fluorescence Spectrophotometer (Varian Inc. Santa Clara, California, USA) and a 3 ml quartz cuvette. […] The temperature was maintained constant at 25 °C by an external thermostatic water circulator. To measure galectin-ligand interactions, recombinant galectin-2 at 20 µM, galectin-3 at 10 µM and galectin-4, -4N and -4C at 5 µM were allowed to equilibrate in PBS for 10–30 minutes under constant stirring before being titrated with testing carbohydrate ligand solutions. […] Control buffer titrations to galectin solutions were performed in parallel for background determination in each experiment. Data from three independent experiments were analysed using nonlinear regression with ‘One Site- Specific Binding’ model (Y = Bmax * X/(KD + X) where X is the ligand concentration, Y is the fluorescence intensity, Bmax is the maximum specific binding and KD is the equilibrium binding constant) in GraphPad Prism 7.04.

galectin-2 [2] = target: T2, galectin-2 (Homo sapiens, UniProt P05162); test: TFS of galectin-2-ligand interaction; format: binding; conditions: for blue shift of maximum fluorescence peak: galectin-2; for maximum ligand binding-induced fluorescence intensity change: galectin-2, buffer titration subtracted; for Kd: galectin-2 20 µM, PBS, 25 °C, mean ± SEM
T2 construct: full length human galectin-2 (residues 1–132, UniProt code: P05162); 6xHis-SUMO (N, cleaved yes); made in house; host or cells: E. coli BL21(DE3)
T2 sequence (P05162 1-132): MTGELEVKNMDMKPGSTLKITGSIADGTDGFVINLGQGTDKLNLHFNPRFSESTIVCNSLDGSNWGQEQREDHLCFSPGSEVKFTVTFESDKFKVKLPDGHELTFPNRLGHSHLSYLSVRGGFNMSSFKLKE
Method: as §1

galectin-4 [3] = target: galectin-4; design: method as in PMID 15546874; conditions: SPR, read-out: binding affinity; cited from earlier work
galectin-2 [4] = target: galectin-2; design: method as in PMID 12223272; conditions: frontal affinity chromatography, read-out: binding affinity; cited from earlier work
galectin-3 [5] = target: T3, galectin-3 (Homo sapiens, UniProt P17931); test: Tryptophan fluorescence spectroscopy (TFS) of galectin-3-ligand interaction; format: binding; conditions: for maximum ligand binding-induced change of intrinsic fluorescence intensity: galectin-3, buffer control titration subtracted; for shift of fluorescence emission maximum to lower wavelength (blue shift): galectin-3, ligand titration; for Kd: galectin-3 10 µM, PBS, 25 °C, One site-Specific binding model
T3 construct: full-length human galectin-3 (residues 1–250, UniProt code: P17931); His-tag (N, cleaved yes); made in house; host or cells: E. coli BL21(DE3)
T3 sequence (P17931 whole entry, the tested form may be a part): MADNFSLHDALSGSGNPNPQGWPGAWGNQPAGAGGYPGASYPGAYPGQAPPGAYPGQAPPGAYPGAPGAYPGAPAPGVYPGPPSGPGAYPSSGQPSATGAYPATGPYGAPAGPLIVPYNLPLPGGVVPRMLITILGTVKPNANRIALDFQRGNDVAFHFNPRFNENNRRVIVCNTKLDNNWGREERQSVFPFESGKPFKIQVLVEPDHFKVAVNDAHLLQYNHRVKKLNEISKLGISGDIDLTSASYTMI
Method: as §1, with “circulator.” for “circulator. To measure galectin-ligand interactions, recombinant galectin-2 at 20 µM, galectin-3 at 10 µM and galectin-4, -4N and -4C at 5 µM were allowed to equilibrate in PBS for 10–30 minutes under constant stirring before being titrated with testing carbohydrate ligand solutions.”

[6] = target: T4, galectin-4C (residues 153–323) (Homo sapiens, UniProt P56470); test: TFS of galectin-4C-ligand interaction; format: binding; conditions: galectin-4C 5 µM, PBS, 25 °C
T4 construct: His-tag (pET47b, HRV3C-cleavable) (cleaved yes); made in house; host or cells: E. coli BL21(DE3)
T4 sequence (P56470 153-323): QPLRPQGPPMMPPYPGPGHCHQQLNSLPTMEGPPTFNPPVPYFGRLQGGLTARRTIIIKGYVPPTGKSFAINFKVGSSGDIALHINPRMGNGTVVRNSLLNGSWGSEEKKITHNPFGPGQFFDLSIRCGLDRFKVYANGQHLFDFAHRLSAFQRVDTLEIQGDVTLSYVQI
Method: as §1

galectin-4 [7] = target: T1, galectin-4; test: ITC of galectin-4-ligand interaction; format: binding; conditions: for binding by ITC (in words): galectin-4 100 µM, 200 mM galactose
Method: (§2) ITC experiments were performed at 25 °C using a MicroCal iTC200 microcalorimeter (Malvern Analytical Ltd, Malvern, UK) with 200 µl cell capacity and 40 µl injection syringe volume. All galectins were used at 100 µM in PBS and the binding ligands were prepared in identical buffers. […] F3 was titrated into galectin-3 at concentration of 20 mM. Ligand-to-buffer and buffer-to-galectin titrations were performed as controls. Ligands were titrated in 19 injections of 2 µl aliquots with 120 s spacing between injections to allow baseline recovery. The ITC titration data were analysed using MicroCal Data Analysis for iTC200 which is an Origin 7.0-based software programme. A curve fit using the ‘One set of sites’ interaction model was used to determine the association constant (KA), stoichiometry of binding (N) and enthalpy change (∆H) for all the interactions of simple sugars with the galectins except F3, where a logistic fit was used due to the nature of F3 as a mixture of heterogeneous polysaccharides.

galectin-3 [8] = target: T3, galectin-3; test: Isothermal titration calorimetry (ITC) of galectin-3-ligand interaction; format: binding; conditions: for Kd: galectin-3 100 µM, PBS, 25 °C
Method: ITC experiments were performed at 25 °C using a MicroCal iTC200 microcalorimeter (Malvern Analytical Ltd, Malvern, UK) with 200 µl cell capacity and 40 µl injection syringe volume. […] Ligand-to-buffer and buffer-to-galectin titrations were performed as controls. Ligands were titrated in 19 injections of 2 µl aliquots with 120 s spacing between injections to allow baseline recovery. The ITC titration data were analysed using MicroCal Data Analysis for iTC200 which is an Origin 7.0-based software programme.

galectin-4C = test system: galectin-4C; design: method as in PMID 15464951, PMID 26077389; conditions: fluorescence anisotropy, LacNAc vs lactose; cited from earlier work
[9] = target: T4, galectin-4C (residues 153–323); test: ITC of galectin-4C-ligand interaction; format: binding; conditions: for binding by ITC (in words): galectin-4C 100 µM
Method: as §2

[10] = target: T5, galectin-4N (residues 1–152) (Homo sapiens, UniProt P56470); test: TFS of galectin-4N-ligand interaction; format: binding; conditions: galectin-4N 5 µM, PBS, 25 °C
T5 construct: N-terminal galectin-4 (galectin-4N, residues 1–152); His-tag (pET47b, HRV3C-cleavable) (cleaved yes); made in house; host or cells: E. coli BL21(DE3)
T5 sequence (P56470 1-152): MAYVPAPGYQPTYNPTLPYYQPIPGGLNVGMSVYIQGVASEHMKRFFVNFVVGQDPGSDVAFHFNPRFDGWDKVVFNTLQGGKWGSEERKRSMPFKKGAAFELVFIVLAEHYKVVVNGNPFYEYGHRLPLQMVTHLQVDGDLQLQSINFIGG
Method: as §1

galectin-2 [11] = target: T2, galectin-2; test: ITC of galectin-2-ligand interaction; format: binding; conditions: for binding by ITC (in words): 200 mM galactose
Method: as §2

[12] = target: T5, galectin-4N (residues 1–152); test: ITC of galectin-4N-ligand interaction; format: binding; conditions: galectin-4N 100 µM, 200 mM galactose
Method: as §2

For α-lactose, the “blue shift of maximum fluorescence peak” value (galectin-4 [1]) was 10 nm, the “maximum ligand binding-induced fluorescence intensity change” value (galectin-4 [1]) was 49 units and the “blue shift of maximum fluorescence peak” value (galectin-2 [2]) was 7 nm. The “maximum ligand binding-induced fluorescence intensity change” value (galectin-2 [2]) was 59 units, the Kd (galectin-4 [3]) was 860 µM and the Kd (galectin-2 [4]) was 1.1 mM. For the same compound, the “maximum ligand binding-induced change of intrinsic fluorescence intensity” value (“maximum ligand binding-induced change” below) (galectin-3 [5]) was 21 units and the “shift of fluorescence emission maximum to lower wavelength (blue shift)” value (“shift … to lower wavelength (blue shift)” for short) (galectin-3 [5]) was 9–10 nm.

For `CC(=O)N[C@H]1C(O)O[C@H](CO)[C@@H](O[C@@H]2O[C@H](CO)[C@H](O)[C@H](O)[C@H]2O)[C@@H]1O` (stereo partly drawn) [LacNAc, N-Acetyl-D-lactosamine], the Kd (galectin-4 [1]; read-out: KD) was 9.3 ± 0.8 mM, the “blue shift of maximum fluorescence peak” value (galectin-4 [1]) was 5 nm and the “maximum ligand binding-induced fluorescence intensity change” value (galectin-4 [1]) was 50 units. For the same compound, the Kd [6] was 12.1 ± 0.7 mM, the “blue shift of maximum fluorescence peak” value (galectin-2 [2]) was 10 nm and the Kd (galectin-2 [2]; n=3, read-out: KD) was 0.654 ± 0.155 mM. The “maximum ligand binding-induced fluorescence intensity change” value (galectin-2 [2]) was 52 units, the Kd (galectin-4 [7]; full-length galectin-4 100 µM, PBS, 25 °C, read-out: KD) was 3.5 ± 0.5 mM and the Kd (galectin-3 [5]; mean ± SEM, n=3) was 0.0279 ± 0.0046 mM. For the same compound, the “maximum ligand binding-induced change” value (galectin-3 [5]) was 26 units, the “shift … to lower wavelength (blue shift)” value (galectin-3 [5]) was 9–10 nm and the “enthalpy ∆H of binding” value (galectin-3 [8]; galectin-3) was -16.5 kcal/mol. For the same compound, the Kd (galectin-3 [8]; One set of sites model, mean ± SEM, n=3) was 0.024 ± 0.0036 mM, the “difference in enthalpy change to lactose” value (galectin-3 [8]; galectin-3, LacNAc vs lactose) was 4.4 kcal/mol and the “fold stronger binding than lactose” value (galectin-3 [8]; galectin-3, LacNAc vs lactose) was ~ 4 fold. For the same compound, the “difference in binding enthalpy to galactose” value (galectin-3 [8]; galectin-3, weakest ligand galactose to strongest ligand LacNAc) was 6.1 kcal/mol, the “fold weaker binding than lactose” value (galectin-4C) was “at least 11 fold” and the “binding by ITC (in words)” value [9] was “very too weak and mostly beyond detection”. The Kd [10] was 7.4 ± 0.9 mM, the Kd (galectin-2 [11]; ITC, galectin-2 100 µM, PBS, 25 °C, mean ± SEM, n=3, read-out: KD) was 554 ± 108 µM and the “fold stronger binding than lactose” value (galectin-2 [11]; ITC, galectin-2, LacNAc vs lactose) was ~ 2 fold.

For `O=C[C@H](O)[C@@H](O)[C@@H](O)[C@H](O)CO` [galactose, D-galactose], the Kd (galectin-4 [1]; KD) was 33.6 mM and 30 to 40 mM, the “blue shift of maximum fluorescence peak” value (galectin-4 [1]) was 4 nm and the “maximum ligand binding-induced fluorescence intensity change” value (galectin-4 [1]) was 80 units. For the same compound, the Kd [6] was 33.8 ± 3 mM, the Kd (galectin-2 [2]; KD, n=3) was 35.6 mM and 30 to 40 mM and the “blue shift of maximum fluorescence peak” value (galectin-2 [2]) was 6 nm. For the same compound, the “maximum ligand binding-induced fluorescence intensity change” value (galectin-2 [2]) was 57 units, the “binding by ITC (in words)” value (galectin-4 [7]) was “too weak to be determined” and the “binding by ITC (in words)” value (galectin-4 [7]; listed as Galactose) was “too weak to be reliably determined”. The Kd (galectin-4 [7]; galectin-4, Fig. 5I, read-out: KD (class symbol in figure)) was greater than 1 mM, the Kd (galectin-3 [5]) was 4.7 mM and ~5 mM and the “maximum ligand binding-induced change” value (galectin-3 [5]) was 28 units. For the same compound, the “shift … to lower wavelength (blue shift)” value (galectin-3 [5]) was 9–10 nm, the Kd (galectin-3 [8]; One set of sites model (F3: logistic fit)) was 3.1 ± 1.1 mM and the “binding by ITC (in words)” value [9] was “very too weak and mostly beyond detection”. For the same compound, the Kd ([9]; galectin-4C, Fig. 7G,I, read-out: KD (class symbol in figure)) was greater than 1 mM, the “binding by ITC (in words)” value [12] was “very little, if any, binding taking place; also recorded: very too weak and mostly beyond detection” and the Kd [10] was 43.3 ± 5.2 mM. For the same compound, the Kd (galectin-2 [11]) was greater than 1000 µM, the “binding by ITC (in words)” value (galectin-2 [11]; ITC, galectin-2 100 µM) was “too weak to be determined” and the “binding by ITC (in words)” value (galectin-2 [11]; ITC, galectin-2 100 µM, listed as Galactose) was “too weak to be reliably determined”.
